Measured values published in patent publication US20220257636A1, “REDUCTION OF BONE RESORPTION, ESPECIALLY IN CHRONIC JOINT DISEASES” (TECHNISCHE UNIVERSITÄT DARMSTADT, priority 2019, published 2022).
Entries after “also recorded” stand apart in the source; their conditions may differ. {Cy5} = Cyanine5 fluorescent label

Experiments:
CD14+ monocytes [1] = assay: Cytokine mRNA levels by RT-qPCR after stimulation of CD14+ monocytes; type: cell-based, human
Experimental: CD14^+ monocytes were stimulated with sEVs from the synovial fluid of ACPA positive patients with rheumatoid arthritis (4 μg/ml), with miR-574-5p oe sEVs (1 μg/ml) or with ScrC sEVs (1 μg/ml) for 4 hours each. Then the whole RNA was isolated and the mRNA levels of IL-23, IL-8, INFα, IL-1β and TNFα were analyzed with RT-qPCR. These cytokines are known for their influence onto the differentiation of osteoclasts (Amara-sekara D. S., Yun Ii., Kim S., Lee N. and Rho J. (2018). “Regulation of Osteoclast Differentiation by Cytokine Networks.” Immune Netw 18: • 1-18). The sequences of the primer pairs used are shown in the sequence protocol (SEQ ID NOs: 6-7 for INFα, SEQ ID NOs: 8-9 for IL-23, SEQ ID NOs: 10-11 for TNFα, SEQ ID NOs: 12-13 for IL-1β and SEQ ID NOs: 14-15 for IL-8). For the normalization of the cDNA amounts in different samples the levels of β-actin were used (primer pair: SEQ ID NOs: 16-17).

pre-osteoclasts = assay: Induction of osteoclast genesis, substances added to pre-osteoclasts; type: cell-based, human; conditions: TLR7/8 agonist added to pre-osteoclasts
Experimental: (§1) After 9 to 12 days the cells were fixed and tested for the osteoclast marker TRAP (tartrate-resistant acid phosphatase). TRAP positive cells which also comprised at least three nuclei were classified as osteoclasts and counted with the light microscope.
(§2) Isolated human CD14^+ monocytes were treated with 1 μg/ml miR-574-5p oe sEVs or ScrC sEVs at different time points of the differentiation (FIG. 8A, 8B, 8C).

CD14+ monocytes [2] = assay: Induction of osteoclast genesis (count of TRAP positive multinuclear cells), substances added to CD14+ monocytes; type: cell-based, human
Description: (§3) CD14^+ monocytes were isolated from PMBCs (peripheral blood mononuclear cells) of healthy donors and stimulated with M-CSF (recombinant human macrophage colony-stimulating factor), RANK-L (receptor activator of NF-κB ligand) and different concentrations of the isolated sEVs. With the sEVs isolated from the synovial fluid both freshly isolated monocytes and differentiated M2-like macrophages were stimulated (FIG. 2).
as §1, §2
The influence of the miR-574-5p PNA AntagomiR which was coupled to CPP onto the osteoclast genesis was tested. This scheme has been adapted such that on day 1 the CPP-coupled miR-574-5p PNA AntagomiR (CPP-PNA) was added in concentrations of 10 μM or 20 μM. The negative control was conducted without any addition of CPP-PNA (0 μm CPP-PNA). […] Also for this experiment freshly isolated human monocytes were used. After the completion of the differentiation matured osteoclasts were visualized with the help of histologic staining (detection of tartrate-resistant acid phosphatases, TRAP). Subsequently, multinuclear TRAP positive cells are quantified under a light microscope.

TLR8 = target: T1, TLR8 (Homo sapiens, UniProt Q9NR97); assay: MST (microscale thermophoresis) direct interaction with TLR8; type: binding; conditions: Cy5-labeled miR
T1 sequence (Q9NR97 27-1041): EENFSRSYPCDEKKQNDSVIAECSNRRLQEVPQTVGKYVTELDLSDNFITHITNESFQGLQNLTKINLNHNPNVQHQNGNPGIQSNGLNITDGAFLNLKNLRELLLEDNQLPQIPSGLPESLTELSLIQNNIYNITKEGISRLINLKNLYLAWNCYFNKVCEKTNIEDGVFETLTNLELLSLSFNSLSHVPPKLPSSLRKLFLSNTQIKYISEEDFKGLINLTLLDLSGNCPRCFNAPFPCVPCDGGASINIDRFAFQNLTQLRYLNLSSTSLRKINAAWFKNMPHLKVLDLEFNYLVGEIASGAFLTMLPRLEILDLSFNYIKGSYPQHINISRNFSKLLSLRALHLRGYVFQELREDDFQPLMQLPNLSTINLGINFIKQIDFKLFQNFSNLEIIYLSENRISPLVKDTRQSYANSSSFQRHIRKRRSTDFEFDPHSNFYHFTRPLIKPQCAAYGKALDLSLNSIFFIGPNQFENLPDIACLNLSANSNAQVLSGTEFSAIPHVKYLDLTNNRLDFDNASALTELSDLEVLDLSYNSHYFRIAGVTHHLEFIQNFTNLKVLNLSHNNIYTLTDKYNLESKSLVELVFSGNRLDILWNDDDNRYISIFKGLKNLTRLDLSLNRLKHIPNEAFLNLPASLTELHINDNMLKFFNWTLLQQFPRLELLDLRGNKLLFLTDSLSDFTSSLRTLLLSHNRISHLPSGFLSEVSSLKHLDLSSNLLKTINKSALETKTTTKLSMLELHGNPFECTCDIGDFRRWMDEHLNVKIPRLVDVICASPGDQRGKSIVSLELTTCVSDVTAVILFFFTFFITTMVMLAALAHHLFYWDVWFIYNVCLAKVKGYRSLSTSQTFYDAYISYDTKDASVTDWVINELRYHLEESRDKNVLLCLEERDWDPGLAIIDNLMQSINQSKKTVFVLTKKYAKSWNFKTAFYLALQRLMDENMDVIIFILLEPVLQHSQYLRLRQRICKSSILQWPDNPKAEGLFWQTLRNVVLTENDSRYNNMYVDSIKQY
Description: In the context of the present invention, a direct interaction of miR-574-5p with TLR8 was detected by means of MST (microscale thermophoresis); (Wienken C. J., Baaske P., Rothbauer U., Braun D. and Duhr S. (2010). “Protein-binding assays in biological liquids using microscale thermophoresis.” Nat Commun 1: 100). […] For the MST experiments Cy5-labeled miR-574-5p (SEQ ID NO: 18) and Cy5-labeled miR-16-5p (SEQ ID NO: 19) were used.

[3] = tested on: freshly isolated human monocytes
Experimental: The cytotoxicity was tested with an MTT assay in which the eponymous dye MTT (3-(4,5-dimethylthiazol-2-yl)-2,5-diphenyltetrazoliumbromide) is used. As negative control a PNA with a sequence which was not complementary to miR-574-5p and which was also bound to CPP by means of the PEG linker was tested (SEQ ID NO: 30). The CPP-PNA construct of the negative control used can be illustrated as follows (from the N-terminus to the C-terminus): [sequence]-(eg1)-[sequence](K—NH2). The negative control differs from the above-described construct according to the present invention only with respect to the PNA sequence.
The cytotoxicity was tested on freshly isolated human monocytes.

M2-like macrophages = assay: Induction of osteoclast genesis (count of TRAP positive multinuclear cells), substances added to M2-like macrophages; type: cell-based, human; conditions: added with miR-574-5p to M2-like macrophages (FIG. 10D)
Description: as §3, §1, §2

[4] = 10 ng/ml, compared with miR-574-5p oe sEVs (FIGS. 11E and 11F)

## CCOCc1nc2c(N)nc3ccccc3c2n1CC(C)(C)O [R848]
CD14+ monocytes [1]; [4]
  IL-23 mRNA: Comparable results
  INFα mRNA: Comparable results
pre-osteoclasts
  osteoclast genesis: no significant increase

## miR-574-5p: microRNA, SEQ ID NO: 4; Cy5-labeled form (SEQ ID NO: 18) used for MST (UGAGUGUGUGUGUGUGAGUGUGU; Cy5-labeled form used for MST, label position not given here; listed as Homo sapiens)
CD14+ monocytes [2]; miR-574-5p alone, not in sEVs (FIG. 9)
  stimulation of the osteoclast genesis: Neither miR-574-5p alone, nor miR-574-5p in the presence of synthetic liposomal vehicles (Lipofectamine® 2000 (Thermo Fisher Scientific, Waltham, USA)) results in a stimulation
CD14+ monocytes [2]; miR-574-5p in the presence of synthetic liposomal vehicles (Lipofectamine 2000) (FIG. 9)
  stimulation of the osteoclast genesis: Neither miR-574-5p alone, nor miR-574-5p in the presence of synthetic liposomal vehicles (Lipofectamine® 2000 (Thermo Fisher Scientific, Waltham, USA)) results in a stimulation
CD14+ monocytes [1]; any of the conditions tested
  IL-1β mRNA level: not influenced
  IL-8 mRNA level: not influenced
  TNFα mRNA level: not influenced
TLR8; read-out: constant of dissociation KD
  Kd: 30.8 ± 5.2 nM

## GRKKRWFRRRRMKWKK-(eg1)-gctattaccttaacccag(K—NH2) (GCTATTACCTTAACCCAG; all peptide nucleic acid (PNA); N-terminal cell-penetrating peptide via eg1 linker, C-terminal lysine amide, further chemistry not fully specified) [negative control]
[3]
  cytotoxicity (MTT, viability): Neither in the case of the negative control (FIG. 13A) nor in the case of miR-574-5p PNA AntagomiR (FIG. 13B) a significant toxicity was observed

## ODN 2087: TLR7/8 inhibitor oligonucleotide, SEQ ID NO: 24, MiltenyiBiotec (TCCTGAGCTTGAAGT; DNA, all phosphorothioate, methylation of C not given here)
M2-like macrophages
  effect of inhibitor on the miR-574-5p induced increase of the number of osteoclasts: nullifies the effect
CD14+ monocytes [2]; added with R848 (FIGS. 10E and 10F)
  effect of inhibitor on the R848 effect on the number of osteoclasts: nullify the effect
CD14+ monocytes [2]; added with miR-574-5p to CD14+ monocytes (FIG. 10C)
  effect of inhibitor on the miR-574-5p induced increase of the number of osteoclasts: nullifies the effect
CD14+ monocytes [1]; added to the stimulation with sEVs or R848
  effect of inhibitor on the induced INFα and IL-23 mRNA increases: nullify the observed effects

## miR-16-5p: microRNA; Cy5-labeled form (SEQ ID NO: 19) used for MST (UAGCAGCACGUAAAUAUUGGCG; RNA, 3' {Cy5}, backbone not given here)
TLR8
  specific interaction with TLR8: specific interaction between TLR8 and miR-16-5p was not shown; also recorded: specific interaction between TLR8 and miR-16-5p was not observed

## GRKKRWFRRRRMKWKK-(eg1)-ctcacacacacacactca(K—CONH2) (PEG linker, C-terminal amide; Cell Penetrating Peptide (CPP); Peptide Nucleic Acid (PNA) AntagomiR) [CPP-coupled miR-574-5p PNA AntagomiR]
[3]
  cytotoxicity (MTT, viability): Neither in the case of the negative control (FIG. 13A) nor in the case of miR-574-5p PNA AntagomiR (FIG. 13B) a significant toxicity was observed
  viability in comparison to the untreated control: increased viability
CD14+ monocytes [2]; added on day 1 at 10 μM or 20 μM, versus 0 μM, TRAP positive multinuclear cells
  osteoclast genesis: concentration-dependent reduction
